Values of other authors as cited in patent publication US9775828B2, “Pharmaceutical composition with increased solubility by using saccharin” (University-Industry Foundation, Yonsei University, priority 2014, dated 2017).

Settings: when administered to the oral cavity and the nasal cavity

bioavailability: about 40%
Compound: CN(C)CCc1c[nH]c2ccc(C[C@H]3COC(=O)N3)cc12 [Zolmitriptan, (S)-4-{{3-[2-(dimethylaminoethyl)]-1H-indol-5-1}methyl}-2-oxazolidinone]
